Laboratory results as given in ChEMBL document CHEMBL1201862, “PubChem BioAssay data set” (2004).
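Dose response: 5 concentrations. Exposure: 48 h. Format: 96-well plates. Endpoint: linear interpolation; highest concentration if not reached. At the GI50, growth is halved.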 Activity calls are given as the source filed them. No stated cut-off is given here; in the data, active = GI50 up to about 1.1 µM and inactive = higher.

Legend:
Experiment in all cases: NCI anticancer screen, dose series, 48 h
HL-60 = tested on: HL-60
OVCAR-5 = tested on: OVCAR-5
HCT-116 = tested on: HCT-116
T47D = tested on: T47D
SR = tested on: SR
NCI/ADR-RES = tested on: NCI/ADR-RES
Malme-3M = tested on: Malme-3M
A549 = tested on: A549
UO-31 = tested on: UO-31
SF-539 = tested on: SF-539
LOX IMVI = tested on: LOX IMVI
MDA-MB-231 = tested on: MDA-MB-231
NCI-H522 = tested on: NCI-H522
SNB-75 = tested on: SNB-75
BT-549 = tested on: BT-549
OVCAR-4 = tested on: OVCAR-4
SF-295 = tested on: SF-295
IGROV-1 = tested on: IGROV-1
Hs-578T = tested on: Hs-578T
EKVX = tested on: EKVX

Structure (SMILES)	GI50 (HL-60)	GI50 (OVCAR-5)	GI50 (HCT-116)	GI50 (T47D)	GI50 (SR)	GI50 (NCI/ADR-RES)	GI50 (Malme-3M)	GI50 (A549)	GI50 (UO-31)	GI50 (SF-539)	GI50 (LOX IMVI)	GI50 (MDA-MB-231)	GI50 (NCI-H522)	GI50 (SNB-75)	GI50 (BT-549)	GI50 (OVCAR-4)	GI50 (SF-295)	GI50 (IGROV-1)	GI50 (Hs-578T)	GI50 (EKVX)
COC(=O)c1ccc(-n2c(C)nc(=O)c(-c3ccccc3)c2C)cc1	> 100 µM (inactive)	> 100 µM (inactive)	> 100 µM (inactive)	> 100 µM (inactive)	> 100 µM (inactive)	> 100 µM (inactive)	> 100 µM (inactive)	> 100 µM (inactive)	> 100 µM (inactive)	74 µM (inactive)	> 100 µM (inactive)	> 100 µM (inactive)	> 100 µM (inactive)	> 100 µM (inactive)	> 100 µM (inactive)	> 100 µM (inactive)	> 100 µM (inactive)	> 100 µM (inactive)	> 100 µM (inactive)	> 100 µM (inactive)
N#Cc1c(-c2ccc(Cl)cc2)c2c([nH]c1=O)-c1cc([N+](=O)[O-])ccc1CCC2	20 µM (inactive)	17.2 µM (inactive)	14.3 µM (inactive)	30.9 µM (inactive)	28.4 µM (inactive)	20.8 µM (inactive)	25.7 µM (inactive)	18.8 µM (inactive)	16 µM (inactive)	17.9 µM (inactive)	17.5 µM (inactive)	22.4 µM (inactive)	13.3 µM (inactive)	23.3 µM (inactive)	15.2 µM (inactive)	19.6 µM (inactive)	11.3 µM (inactive)	21 µM (inactive)	25.2 µM (inactive)	17.1 µM (inactive)
O=c1[nH]c2nc3ccccc3c(=O)n2/c1=C/c1ccc(O)cc1	26 µM (inactive)	> 100 µM (inactive)	36.8 µM (inactive)	42.2 µM (inactive)	16.9 µM (inactive)	41.7 µM (inactive)	39.1 µM (inactive)	40.6 µM (inactive)	53.7 µM (inactive)	21.3 µM (inactive)	35.6 µM (inactive)	60.3 µM (inactive)	23.2 µM (inactive)	23.8 µM (inactive)	32.1 µM (inactive)	> 100 µM (inactive)	46.9 µM (inactive)	39.2 µM (inactive)	18.6 µM (inactive)	54.3 µM (inactive)
COc1ccc2nc3cc(Cl)ccc3c(NCCCN(CCCl)CCCl)c2c1	< 0.01 µM (active)	0.034 µM (active)	0.012 µM (active)	< 0.01 µM (active)	< 0.01 µM (active)	< 0.01 µM (active)	0.0841 µM (active)	< 0.0122 µM (active)	0.0472 µM (active)	0.0111 µM (active)	0.0126 µM (active)	0.0316 µM (active)	0.0105 µM (active)	0.177 µM (active)	0.129 µM (active)	0.0845 µM (active)	0.0142 µM (active)	0.0324 µM (active)	0.0328 µM (active)	0.11 µM (active)
COc1ccc(COCC[C@H](C)OC2OC(CO[Si](C)(C)C(C)(C)C)C(O)C(O)C2O)cc1 (some centres undefined)	> 100 µM (inactive)	> 100 µM (inactive)	> 100 µM (inactive)	> 100 µM (inactive)	> 100 µM (inactive)	> 100 µM (inactive)	> 100 µM (inactive)	> 100 µM (inactive)	81.8 µM (inactive)	> 100 µM (inactive)	> 100 µM (inactive)	> 100 µM (inactive)	> 100 µM (inactive)	44.2 µM (inactive)	> 100 µM (inactive)	> 100 µM (inactive)	> 100 µM (inactive)	> 100 µM (inactive)	> 100 µM (inactive)	> 100 µM (inactive)
COC(=O)c1sc2c(c1C(=O)OC)/C(=N/c1ccc(OC)cc1)S/C2=N\c1ccc(OC)cc1	0.245 µM (active)	1.73 µM (inactive)	0.451 µM (active)	0.982 µM (active)	0.485 µM (active)	1.71 µM (inactive)	1.74 µM (inactive)	1.31 µM (inactive)	0.865 µM (active)	0.274 µM (active)	0.258 µM (active)	0.853 µM (active)	0.541 µM (active)	0.787 µM (active)	1.54 µM (inactive)	1.35 µM (inactive)	1.68 µM (inactive)	1.2 µM (inactive)	1.5 µM (inactive)	1.55 µM (inactive)
CC1=NN(c2nc(N)nc(/C(C#N)=C\c3cccc([N+](=O)[O-])c3)n2)C(C)(C)C1	0.205 µM (active)	24.4 µM (inactive)	10.4 µM (inactive)	11 µM (inactive)	30.1 µM (inactive)	18.8 µM (inactive)	16.9 µM (inactive)	12.3 µM (inactive)	5.32 µM (inactive)	8.2 µM (inactive)	7.13 µM (inactive)	9.29 µM (inactive)	2.92 µM (inactive)	6.68 µM (inactive)	> 20.7 µM (inactive)	10 µM (inactive)	10.2 µM (inactive)	5.05 µM (inactive)	18.5 µM (inactive)	29.9 µM (inactive)
COC(=O)c1cc2ccc(OC(C)=O)c(OC(C)=O)c2cn1	2.72 µM (inactive)	18.7 µM (inactive)	17.3 µM (inactive)	> 10 µM (inactive)	2.65 µM (inactive)	6.5 µM (inactive)	8.07 µM (inactive)	21.2 µM (inactive)	15.8 µM (inactive)	19.1 µM (inactive)	1.42 µM (inactive)	4.01 µM (inactive)	17.4 µM (inactive)	20 µM (inactive)	> 10 µM (inactive)	16.7 µM (inactive)	4.95 µM (inactive)	18.6 µM (inactive)	> 10 µM (inactive)	22.6 µM (inactive)
O=C(COc1ccccc1)N(C(=O)N1CCN(c2ccccc2)CC1)S(=O)(=O)c1ccccc1	83.4 µM (inactive)	> 100 µM (inactive)	44 µM (inactive)	34.8 µM (inactive)	21.7 µM (inactive)	56.8 µM (inactive)	> 100 µM (inactive)	> 100 µM (inactive)	94.6 µM (inactive)	> 100 µM (inactive)	77.4 µM (inactive)	52 µM (inactive)	31.9 µM (inactive)	33.9 µM (inactive)	> 100 µM (inactive)	> 100 µM (inactive)	> 100 µM (inactive)	–	> 100 µM (inactive)	> 100 µM (inactive)
CCc1ncnc2cc(OCC3CO3)c(OC)cc12 (centres undefined)	0.889 µM (active)	13 µM (inactive)	0.577 µM (active)	20.9 µM (inactive)	0.209 µM (active)	7.23 µM (inactive)	12.3 µM (inactive)	4.49 µM (inactive)	2.03 µM (inactive)	5.98 µM (inactive)	0.646 µM (active)	7.24 µM (inactive)	2.31 µM (inactive)	17.3 µM (inactive)	3.95 µM (inactive)	6.38 µM (inactive)	3.15 µM (inactive)	1.06 µM (active)	5.77 µM (inactive)	10.6 µM (inactive)
O=[N+]([O-])c1ccc2c(c1)N=C1OC(c3c[nH]c4ccc(COc5ccccc5)cc34)C(O)=C1N2 (centres undefined)	1.74 µM (inactive)	> 100 µM (inactive)	72.8 µM (inactive)	> 100 µM (inactive)	7.71 µM (inactive)	> 100 µM (inactive)	> 100 µM (inactive)	> 100 µM (inactive)	> 100 µM (inactive)	> 100 µM (inactive)	> 100 µM (inactive)	56.6 µM (inactive)	17.3 µM (inactive)	25.1 µM (inactive)	> 100 µM (inactive)	> 100 µM (inactive)	47.6 µM (inactive)	> 100 µM (inactive)	> 100 µM (inactive)	> 100 µM (inactive)
N#CC1N(C(=O)c2ccc(F)cc2)c2ccccc2N1C(=O)c1ccc(F)cc1	40.3 µM (inactive)	> 100 µM (inactive)	42.3 µM (inactive)	27.2 µM (inactive)	70.3 µM (inactive)	26.7 µM (inactive)	68.9 µM (inactive)	> 100 µM (inactive)	37.7 µM (inactive)	62.7 µM (inactive)	29 µM (inactive)	46.7 µM (inactive)	34.4 µM (inactive)	30.7 µM (inactive)	24.9 µM (inactive)	35.7 µM (inactive)	> 100 µM (inactive)	32.4 µM (inactive)	68.1 µM (inactive)	44.4 µM (inactive)
CSCCC(N)C(=O)NCCNc1ccc(NCCNC(=O)C(N)CCSC)c2c1C(=O)c1ccccc1C2=O (centres undefined)	0.746 µM (active)	1.99 µM (inactive)	0.424 µM (active)	2.5 µM (inactive)	0.197 µM (active)	2.21 µM (inactive)	1.89 µM (inactive)	0.579 µM (active)	1.41 µM (inactive)	0.973 µM (active)	0.624 µM (active)	1.16 µM (inactive)	0.199 µM (active)	1.57 µM (inactive)	1.48 µM (inactive)	1.67 µM (inactive)	1.57 µM (inactive)	2.12 µM (inactive)	1.02 µM (active)	2.46 µM (inactive)
Nc1ccccc1C(=O)CC1OC(=O)c2ccccc21 (centres undefined)	> 100 µM (inactive)	> 100 µM (inactive)	51.6 µM (inactive)	81.8 µM (inactive)	46.5 µM (inactive)	60.1 µM (inactive)	50.5 µM (inactive)	65.6 µM (inactive)	> 100 µM (inactive)	36 µM (inactive)	52.8 µM (inactive)	> 100 µM (inactive)	> 100 µM (inactive)	23 µM (inactive)	35 µM (inactive)	65.5 µM (inactive)	> 100 µM (inactive)	> 100 µM (inactive)	46.8 µM (inactive)	34.9 µM (inactive)
